Experimental data taken from US6737383B1, “Herbicidal oxadiazolidines” (priority 1999, dated 2004).

Tests used:
blackgrass = assay: Test B pre/postemergence blackgrass; format: in vivo, Alopecurus myosuroides
Method in brief: (§1)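 Response is a visual 0-to-10 score relative to untreated plants, where 0 means no effect and 10 means complete control, taken twelve to sixteen days after application. Treatments went onto soil at planting and onto foliage of 1- to 4-leaf plants, using a surfactant-containing non-phytotoxic solvent.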

surinam grass = assay: Test B pre/postemergence surinam grass; format: in vivo, Brachiaria decumbens
Method in brief: as §1

cocklebur = assay: Test B pre/postemergence cocklebur; format: in vivo, Xanthium strumarium
Method in brief: as §1

corn = assay: Test B pre/postemergence corn; format: in vivo, Zea mays
Method in brief: as §1

crabgrass = assay: Test B pre/postemergence crabgrass; format: in vivo, Digitaria sanguinalis
Method in brief: as §1

giant foxtail = assay: Test B pre/postemergence giant foxtail; format: in vivo, Setaria faberii
Method in brief: as §1

morningglory = assay: Test B pre/postemergence morningglory; format: in vivo, Ipomoea hederacea
Method in brief: as §1

pigweed = assay: Test B pre/postemergence pigweed; format: in vivo, Amaranthus retroflexus
Method in brief: as §1

rape = assay: Test B pre/postemergence rape; format: in vivo, Brassica napus
Method in brief: as §1

soybean = assay: Test B pre/postemergence soybean; format: in vivo, Glycine max
Method in brief: as §1

sugar beet = assay: Test B pre/postemergence sugar beet; format: in vivo, Beta vulgaris
Method in brief: as §1

velvetleaf = assay: Test B pre/postemergence velvetleaf; format: in vivo, Abutilon theophrasti
Method in brief: as §1

wild oat = assay: Test B pre/postemergence wild oat; format: in vivo, Avena fatua
Method in brief: as §1

purple nutsedge = assay: Test B pre/postemergence purple nutsedge; format: in vivo, Cyperus rotundus
Method in brief: as §1

smallflower flatsedge = assay: Test B flood test smallflower flatsedge; format: in vivo, Cyperus difformis
Method in brief: (§2)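 Read-out is a visual response score from 0 (no effect) to 10 (complete control), assigned by comparison with untreated controls. Treatment was applied at the 2-leaf stage, and plants stayed in the greenhouse for twelve to sixteen days before scoring.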

bamyardgrass = assay: Test B flood test barnyardgrass; format: in vivo, Echinochloa crus-galli
Method in brief: as §2

[1] = Postemergence, Rate 62 g/ha, scale 0 to 10, 0 is no effect, 10 is complete control
[2] = Postemergence, Rate 125 g/ha, scale of 0 to 10 where 0 is no effect and 10 is complete control
[3] = Postemergence, Rate 250 g/ha, scale of 0 to 10, 0 is no effect, 10 is complete control
[4] = Postemergence, Rate 500 g/ha, scale of 0 to 10 where 0 is no effect and 10 is complete control
[5] = Preemergence, Rate 62 g/ha, scale 0 to 10 (0 no effect, 10 complete control)
[6] = Preemergence, Rate 125 g/ha, scale of 0 to 10 where 0 is no effect and 10 is complete control
[7] = Preemergence, Rate 250 g/ha, scale 0 to 10 (0 no effect, 10 complete control)
[8] = Preemergence, Rate 500 g/ha, scale of 0 to 10 where 0 is no effect and 10 is complete control
[9] = Rate 62 g/ha, flood test species, Pre-emergence, visual evaluation after twelve to sixteen days
[10] = Rate 125 g/ha, under heading Pre-emergence, flood test species, visual evaluation after twelve to sixteen days
[11] = Rate 250 g/ha, Pre-emergence (flood test species), scale 0 to 10, 0 is no effect, 10 is complete control
[12] = Rate 500 g/ha, Pre-emergence section of Table B, 0 to 10 scale (0 no effect, 10 complete control)

## COCCn1c(=O)on(C(=O)N(c2ccccc2)C(C)C)c1=O [Compound 631]
blackgrass; [1]
  Plant response rating, Blackgrass: 1
blackgrass; [2]
  Plant response rating, Blackgrass: 8
blackgrass; [3]
  Blackgrass plant response rating: 6
blackgrass; [4]
  Plant response rating, Blackgrass: 9
blackgrass; [5]
  Blackgrass plant response rating: 6
blackgrass; [6]
  Blackgrass plant response rating: 7
blackgrass; [7]
  Plant response rating, Blackgrass: 9
blackgrass; [8]
  Plant response rating, Blackgrass: 10
Surinam grass; [1]
  Plant response rating, B. signalgrass: 1
Surinam grass; [2]
  Plant response rating, B. signalgrass: 3
Surinam grass; [3]
  B. signalgrass plant response rating: 6
Surinam grass; [4]
  Plant response rating, B. signalgrass: 8
Surinam grass; [5]
  B. signalgrass plant response rating: 6
Surinam grass; [6]
  B. signalgrass plant response rating: 7
Surinam grass; [7]
  Plant response rating, B. signalgrass: 10
Surinam grass; [8]
  Plant response rating, B. signalgrass: 10
cocklebur; [1]
  Plant response rating, Cocklebur: 0
cocklebur; [2]
  Plant response rating, Cocklebur: 0
cocklebur; [3]
  Cocklebur plant response rating: 0
cocklebur; [4]
  Plant response rating, Cocklebur: 2
cocklebur; [5]
  Cocklebur plant response rating: 0
cocklebur; [6]
  Cocklebur plant response rating: 0
cocklebur; [7]
  Plant response rating, Cocklebur: 0
cocklebur; [8]
  Plant response rating, Cocklebur: 2
corn; [1]
  Plant response rating, Corn: 5
corn; [2]
  Plant response rating, Corn: 5
corn; [3]
  Corn plant response rating: 6
corn; [4]
  Plant response rating, Corn: 8
corn; [5]
  Corn plant response rating: 5
corn; [6]
  Corn plant response rating: 6
corn; [7]
  Plant response rating, Corn: 8
corn; [8]
  Plant response rating, Corn: 9
crabgrass; [1]
  Plant response rating, Crabgrass: 8
crabgrass; [2]
  Plant response rating, Crabgrass: 9
crabgrass; [3]
  Crabgrass plant response rating: 9
crabgrass; [4]
  Plant response rating, Crabgrass: 9
crabgrass; [5]
  Crabgrass plant response rating: 7
crabgrass; [6]
  Crabgrass plant response rating: 7
crabgrass; [7]
  Plant response rating, Crabgrass: 9
crabgrass; [8]
  Plant response rating, Crabgrass: 9
Giant foxtail; [1]
  Plant response rating, Giant foxtail: 8
Giant foxtail; [2]
  Plant response rating, Giant foxtail: 9
Giant foxtail; [3]
  Giant foxtail plant response rating: 9
Giant foxtail; [4]
  Plant response rating, Giant foxtail: 9
Giant foxtail; [5]
  Giant foxtail plant response rating: 9
Giant foxtail; [6]
  Giant foxtail plant response rating: 9
Giant foxtail; [7]
  Plant response rating, Giant foxtail: 10
Giant foxtail; [8]
  Plant response rating, Giant foxtail: 10
morningglory; [1]
  Plant response rating, Morningglory: 0
morningglory; [2]
  Plant response rating, Morningglory: 4
morningglory; [3]
  Morningglory plant response rating: 4
morningglory; [4]
  Plant response rating, Morningglory: 10
morningglory; [5]
  Morningglory plant response rating: 0
morningglory; [6]
  Morningglory plant response rating: 0
morningglory; [7]
  Plant response rating, Morningglory: 4
morningglory; [8]
  Plant response rating, Morningglory: 7
pigweed; [1]
  Plant response rating, Redroot pigweed: 0
pigweed; [2]
  Plant response rating, Redroot pigweed: 0
pigweed; [5]
  Redroot pigweed plant response rating: 7
pigweed; [6]
  Redroot pigweed plant response rating: 9
pigweed; [7]
  Plant response rating, Redroot pigweed: 10
pigweed; [8]
  Plant response rating, Redroot pigweed: 10
rape; [1]
  Plant response rating, Rape: 0
rape; [2]
  Plant response rating, Rape: 0
rape; [3]
  Rape plant response rating: 2
rape; [4]
  Plant response rating, Rape: 2
rape; [5]
  Rape plant response rating: 0
rape; [6]
  Rape plant response rating: 0
rape; [7]
  Plant response rating, Rape: 6
rape; [8]
  Plant response rating, Rape: 8
soybean; [1]
  Plant response rating, Soybean: 5
soybean; [2]
  Plant response rating, Soybean: 5
soybean; [3]
  Soybean plant response rating: 8
soybean; [5]
  Soybean plant response rating: 2
soybean; [6]
  Soybean plant response rating: 5
soybean; [7]
  Plant response rating, Soybean: 9
soybean; [8]
  Plant response rating, Soybean: 9
Sugar beet; [1]
  Plant response rating, Sugarbeets: 0
Sugar beet; [2]
  Plant response rating, Sugarbeets: 0
Sugar beet; [3]
  Sugarbeets plant response rating: 0
Sugar beet; [5]
  Sugarbeets plant response rating: 0
Sugar beet; [6]
  Sugarbeets plant response rating: 3
Sugar beet; [7]
  Plant response rating, Sugarbeets: 4
Sugar beet; [8]
  Plant response rating, Sugarbeets: 8
velvetleaf; [1]
  Plant response rating, Velvetleaf: 4
velvetleaf; [2]
  Plant response rating, Velvetleaf: 4
velvetleaf; [3]
  Velvetleaf plant response rating: 7
velvetleaf; [5]
  Velvetleaf plant response rating: 6
velvetleaf; [6]
  Velvetleaf plant response rating: 7
velvetleaf; [7]
  Plant response rating, Velvetleaf: 7
velvetleaf; [8]
  Plant response rating, Velvetleaf: 9
Wild oat; [1]
  Plant response rating, Wild oats: 0
Wild oat; [2]
  Plant response rating, Wild oats: 0
Wild oat; [3]
  Wild oats plant response rating: 1
Wild oat; [5]
  Wild oats plant response rating: 0
Wild oat; [6]
  Wild oats plant response rating: 2
Wild oat; [7]
  Plant response rating, Wild oats: 8
Wild oat; [8]
  Plant response rating, Wild oats: 9
Purple nutsedge; [1]
  Plant response rating, Nutsedge: 0
Purple nutsedge; [2]
  Plant response rating, Nutsedge: 0
Purple nutsedge; [3]
  Nutsedge plant response rating: 0
Purple nutsedge; [5]
  Nutsedge plant response rating: 0
Purple nutsedge; [6]
  Nutsedge plant response rating: 4
Purple nutsedge; [7]
  Plant response rating, Nutsedge: 4
Purple nutsedge; [8]
  Plant response rating, Nutsedge: 8
Smallflower flatsedge; [9]
  Plant response rating, S. Flatsedge (0 to 10 scale, 0 is no effect, 10 is complete control): 0
Smallflower flatsedge; [10]
  S. Flatsedge plant response rating (0 to 10 scale, 0 is no effect, 10 is complete control): 0
Smallflower flatsedge; [11]
  S. Flatsedge plant response rating: 0
Smallflower flatsedge; [12]
  S. Flatsedge plant response rating: 0
bamyardgrass; [9]
  Plant response rating, Barnyardgrass (0 to 10 scale, 0 is no effect, 10 is complete control): 0
bamyardgrass; [10]
  Barnyardgrass plant response rating (0 to 10 scale, 0 is no effect, 10 is complete control): 1
bamyardgrass; [11]
  Barnyardgrass plant response rating: 4
bamyardgrass; [12]
  Barnyardgrass plant response rating: 4
